Data taken from publication PMC9125540 (Virology Journal, 2022).
Structures can show the parent of a compound that is named as a salt. Where two headings read alike, the source gives them in different places.

Columns and labels:
[1] = test system: MDCK cells; test: MTT cytotoxicity assay of the compounds (CC50, NCTC, selectivity index); details: MDCK cells, MTT, 48 h
Method: (§1) The cytotoxic effects of the anionic compounds on the viability of MDCK cells was measured by MTT [3-(4, 5-dimethylthiazol-2ol) 2, 5 diphenyl tetrazolium bromide] assay. Briefly, the confluent 96-well plate of MDCK cells were exposed to twofold serial dilutions of the compounds (in triplicates), 100 μl/well, and incubated for 48 h. After the incubation period, the supernatants were removed and 100 μl of 1X MTT solution (100 μl/well) was added to each well. The plates were incubated for 4 h at 37 °C. Then, 100 μl of DMSO (Samchun, Korea) was added to dissolve formazan crystals. Color adsorption in the solution was measured using an enzyme-linked immunosorbent assay (ELISA) reader (StataFax 2100, USA) at 570 nm to calculate the 50% cytotoxic concentration (CC50). The cells without treatment were used as negative control. The percentage of toxicity was calculated using the following formula:
(§2) Toxicity (%) = [100 − (ODT/ODC) × 100], where ODT and ODC refer to the absorbance of the test substance and control, respectively [34]. The 50% cytotoxic concentration (CC50) was defined as the cytotoxic concentration of compounds by regression analysis.
(§3) The non-cytotoxic concentration (NCTC) of the compounds was also determined using the same procedure and used for the antiviral assays. […] The cells with no treatment were considered as negative control.
(§4) The selectivity index (SI) is relative safety of a compound and it was obtained by dividing CC50 by NCTC in the same units.

[2] = test system: IFN-β1; type: cell-based, Canine; details: combination treatment (co-penetration) with H1N1, 72 h; H1N1 alone 0.038 fold
[3] = test system: IL-6; type: cell-based, Canine; details: combination treatment (co-penetration) with H1N1, 72 h; H1N1 alone 16.622 fold
[4] = test system: IAV M gene; type: cell-based, influenza A virus
[5] = test system: TNF-α; test: ELISA cytokine protein quantification, TNF-α; type: cell-based, Canine
Method: (§5) MDCK cells were treated as mentioned above. Untreated cells were considered as the negative control. Cell-free supernatant was harvested following 72 h infection period and stored at − 80 °C for the cytokine analysis. In order to investigate the effect of viral infection and anionic compounds on the production of inflammatory cytokines such as IL-6, CCL2 and TNF-α as well as anti-inflammatory cytokine proteins IFN-β1 and IL-27, ELISA method was utilized. Quantitative sandwich Picokine ELISA kits (Boster Biological Technology, CA, USA) were used to detect IL-6, TNF-α and IL-27 cytokine proteins according to the manufacturer's instructions. The CCL2 and IFN-β were evaluated by sandwich Ready-SET-Go kit (Invitrogen, USA) and sandwich geneILNB1 kit (EIAab Science Co, China) according to the manufacturers’ instructions, respectively. The concentrations of the cytokines were calculated according to the corresponding reaction standard formula.
(§6) The cytokine protein levels in supernatants of MDCK cell culture at 72 h after exposure were calculated according to the reaction standard formula.
(§7) To calculate the concentration of the cytokines in cell free supernatants, firstly, the standards optical densities were measured and the standard curves were plotted. The equations of standard curves were used to estimate protein concentration in the samples.

[6] = test system: TNF-α; type: cell-based, Canine; details: combination treatment (co-penetration) with H1N1, 72 h; H1N1 alone 191.00 fold
[7] = test system: IFN- β; test: ELISA cytokine protein quantification, IFN-β; type: cell-based, Canine
Method: as §5, §6, §7

[8] = test system: IL-27; test: ELISA cytokine protein quantification, IL-27; type: cell-based, Canine
Method: as §5, §6, §7

[9] = test system: CCL2; test: ELISA cytokine protein quantification, CCL2; type: cell-based, Canine
Method: as §5, §6, §7

[10] = test system: IL-27; type: cell-based, Canine; details: combination treatment (co-penetration) with H1N1, 72 h; H1N1 alone 0.004 fold
[11] = test system: CCL2; type: cell-based, Canine; details: combination treatment (co-penetration) with H1N1, 72 h; H1N1 alone 22.123 fold
[12] = test system: IL-6; test: ELISA cytokine protein quantification, IL-6; type: cell-based, Canine
Method: as §5, §6, §7

[13] = MTT cytotoxicity assay of the compounds (CC50, NCTC, selectivity index); details: dog
Method: as §1, §2, §3, §4

[14] = co-penetration with H1N1, MDCK supernatant, 72 h, H1N1 alone 523.00 ± 2.41
[15] = co-penetration with H1N1, MDCK supernatant, 72 h, H1N1 alone 26.25 ± 1.77
[16] = co-penetration with H1N1, MDCK supernatant, 72 h, H1N1 alone 941.67 ± 4.71
[17] = co-penetration with H1N1, MDCK supernatant, 72 h, H1N1 alone 1243.79 ± 5.58

CC(=O)[O-].[Na+] [Acetate, sodium acetate]
CC50 [1]: 28950 ± 4320 µg/mL | NCTC (non-cytotoxic concentration) [1]: 3.00 ± 0.00 mg/mL | NCTC (non-cytotoxic concentration) ([1]; listed as acetate): 3 mg/mL | IFN- β1 relative expression [2]: 0.049 fold | IL-6 relative expression [3]: 0.020 fold | Ct value, IAV M gene [4]: 20.70 ± 0.30 | TNF-α cytokine protein concentration (mean ± SD) [5]: 222.20 ± 0.64 pg/mL | percentage of change of TNF-α protein relative to H1N1 (mean ± SD) ([5]; co-penetration, 72 h): -57.51 ± 0.32 | TNF-α relative expression [6]: 4.83 fold | IFN- β cytokine protein concentration (mean ± SD) [7]: 68.96 ± 2.06 pg/mL | percentage of change of IFN- β protein relative to H1N1 (mean ± SD) ([7]; co-penetration, 72 h): 163.03 ± 9.86 | IL-27 cytokine protein concentration (mean ± SD) [8]: 1938.33 ± 0.00 pg/mL | percentage of change of IL-27 protein relative to H1N1 (mean ± SD) ([8]; co-penetration, 72 h): 105.84 ± 1.03 | CCL2 cytokine protein concentration (mean ± SD) [9]: 338.26 ± 0.00 pg/mL | percentage of change of CCL2 protein relative to H1N1 (mean ± SD) ([9]; co-penetration, 72 h): -72.80 ± 0.12 | IL-27 relative expression [10]: 0.099 fold | CCL2 relative expression [11]: 0.094 fold | IL-6 cytokine protein concentration (mean ± SD) [12]: 110.64 ± 0.08 pg/mL

NC12CC3CC(CC(C3)C1)C2 [Amantadine hydrochloride, reference compound]
NCTC (non-cytotoxic concentration) [1]: 0.10 ± 0.00 mg/mL | CC50 at 48 h [13]: 200 ± 1530 µg/mL

O=C1O[C@H]([C@@H](O)CO)C(O)=C1O [Ascorbate, ascorbic acid]
Ct value, IAV M gene ([4]; combination treatment with H1N1, supernatants of 48 h treatments, H1N1 alone 12.76 ± 0.24): No Ct value was detected | TNF-α cytokine protein concentration (mean ± SD) [5, 14]: 284.25 ± 0.32 pg/mL | IFN- β cytokine protein concentration (mean ± SD) [7, 15]: 73.75 ± 1.77 pg/mL | IFN- β cytokine protein concentration (mean ± SD) ([7]; co-penetration with H1N1, MDCK supernatant, 72 h, H1N1 alone 26.25 ± 1.77, listed as Asc): 73.75 ± 1.77 pg/mL | IL-27 cytokine protein concentration (mean ± SD) [8, 16]: 1833.33 ± 2.36 pg/mL | CCL2 cytokine protein concentration (mean ± SD) [9, 17]: 309.05 ± 1.86 pg/mL | CCL2 cytokine protein concentration (mean ± SD) ([9]; co-penetration with H1N1, MDCK supernatant, 72 h, H1N1 alone 1243.79 ± 5.58, listed as Asc): 309.05 ± 1.86 pg/mL | IL-6 cytokine protein concentration (mean ± SD) ([12]; co-penetration with H1N1, MDCK supernatant, 72 h, H1N1 alone 171.78 ± 0.17): 38.05 ± 0.17 pg/mL

O=C(O)CC(O)(CC(=O)O)C(=O)O [Citrate, sodium citrate]
NCTC (non-cytotoxic concentration) [1]: 3.00 ± 0.00 mg/mL | NCTC (non-cytotoxic concentration) ([1]; listed as citrate): 3 mg/mL | Ct value, IAV M gene [4]: 22.45 ± 0.75 | TNF-α cytokine protein concentration (mean ± SD) [5, 14]: 253.45 ± 0.48 pg/mL | IFN- β cytokine protein concentration (mean ± SD) [7, 15]: 70.62 ± 2.06 pg/mL | IL-27 cytokine protein concentration (mean ± SD) [8, 16]: 2055.00 ± 0.00 pg/mL | IL-27 cytokine protein concentration (mean ± SD) ([8]; co-penetration with H1N1, MDCK supernatant, 72 h, H1N1 alone 941.67 ± 4.71, listed as Cit): 2055.00 ± 0.00 pg/mL | CCL2 cytokine protein concentration (mean ± SD) [9, 17]: 446.95 ± 0.37 pg/mL | IL-6 cytokine protein concentration (mean ± SD) ([12]; co-penetration with H1N1, MDCK supernatant, 72 h, H1N1 alone 171.78 ± 0.17, listed as Cit): 126.60 ± 0.17 pg/mL
